Test results published in patent publication US8574829B2, “Methods of treating cancer with phenformin” (The Trustees Of The University Of Pennsylvania, priority 2009, dated 2013).
Entries after “also recorded” stand apart in the source; their conditions may differ.

Experiments:
K562 cells [1] = assay: K562 cell viability by propidium iodide exclusion over four days; type: cell-based; conditions: single dose, 1 mM phenformin, 750 nM imatinib, 25 nM rapamycin, FIG. 1B
Protocol: (§1) K562 cell line was obtained from ATCC.
K562 cells were treated with a single dose of imatinib, rapamycin, or phenformin, and assessed for cell number (Coulter Counter) and cell viability (by propidium iodide exclusion) over four days.

STAT5 = assay: Western blot of phospho-STAT5 (tyr694/699) in K562 cells 24 hours after inhibitor treatment; type: cell-based; conditions: relative to untreated, FIG. 2
Source text: (§2) Western Blot Analysis. Cells were lysed in radioimmunoprecipitation (RIPA) buffer containing protease inhibitors (Complete Mini, Roche Applied Science), and protease inihibitors cocktails I and II (Sigma). BCA Protein Assay kit (Pierce Biotechnology) was used to assess and standardize protein concentrations. Proteins were resolved using a 4-12% NuPage Bis-Tris polyacrylamide gels (Invitrogen), and transferred to nitrocellulose membranes. Membranes were blocked using 5% nonfat dry skim milk and 0.1% Tween. […] Bands were subsequently detected using horseradish-peroxidase conjugated anti-mouse or anti-rabbit secondary antibodies (GE Healthcare Industries) and enhanced chemiluminescence detection kit (Amersham).
(§3) To characterize the pattern of signaling pathway activation in inhibitor-treated cells, the activity of the Akt and Jak-STAT pathways were examined, two pathways known to be activated by the bcr-abl oncogenic signaling. Proteins were isolated from cells, 24 hours after inhibitor treatment, and assessed for levels of phospho-Akt ([…]) and phospho-STAT5 (tyr694/699), as well as total levels of these proteins as loading controls.

Akt = assay: Western blot of phospho-Akt in K562 cells 24 hours after inhibitor treatment; type: cell-based; conditions: relative to untreated, FIG. 2
Source text: as §2, §3

K562 cells [2] = assay: Aerobic glycolysis: total glucose consumption and lactate production of K562 cultures over four days (Nova Bioprofile Flex Analyzer); type: cell-based; conditions: for glucose consumption: FIG. 5A; for lactate production: FIG. 5B
Protocol: (§4) Daily cell culture supernatants were collected, and analyzed using the Nova Biomedical Bioprofile Flex Analyzer, which determined glucose, glutamine, lactate, and ammonia levels. For the HIF-1 induction experiments, K562 cells were incubated at 4 million cells/ml in a plastic tube (Falcon 35-2059) with rubber stopper (Kontes Glass Company #882310), with constant stirring at 37 C. At indicated time points, tubes were spun to pellet cells, and the glucose, lactate and pO2 content of supernatant was assessed by syringe sampling through an air-tight rubber stopper. After supernatant sampling, cells were collected and lysates were prepared as described above.
To investigate the metabolic effects of phenformin on K562 cells, we compared the glycolytic activity of the cells in the drug-treated cultures by quantifying total glucose consumption and lactate production over four days (FIGS. 5A and 5B, respectively), by collecting and analyzing daily cell culture supernatants using a Nova Biomedical Bioprofile Flex Analyzer. […] Phenformin was therefore novel in its ability to dissociate aerobic glycolysis from cell proliferation.

K562 cells [3] = assay: K562 viability under medium depletion of glucose or glutamine (propidium iodide exclusion, FACS); type: cell-based; conditions: K562, 4 days; FIG. 7
Protocol: as §1
The viability of K562 cells after variable inhibitor treatment, and selective medium depletion of glucose or glutamine, is shown. Cell viability was determined by propidium iodide exclusion of 10,000 cells (via FACS analysis), taken from each culture each day of experiment.

K562 cells [4] = assay: Glutamine uptake of K562 cultures over four days; type: cell-based; conditions: FIG. 8
Protocol: as §4
To further investigate what functional role the TCA cycle might play in K562 proliferation, we compared the ability of phenformin-treated cells to metabolize glutamine. In tumor cells, glutaminolysis is important in maintaining TCA cycle activity, as it serves to provide an additional source of TCA cycle intermediates (a-ketoglutarate) to the mitochondria.

K562 cells [5] = assay: K562 proliferation, cell number by Coulter Counter over four days after a single dose of inhibitor; conditions: FIG. 1A; for effect on K562 proliferation (cell number): 25 nM rapamycin, four days
K562 cells [6] = assay: Comparison of phenformin and metformin: total K562 cell number after three days over a range of biguanide concentrations; type: cell-based; conditions: three days after a single dose, FIG. 3; for inhibition of K562 proliferation: started at 200,000 cells/ml
Source text: Direct comparison of metformin and phenformin activity, over a range of biguanide concentrations, was accomplished by comparing total K562 cell number after three days of exposure to a single dose of phenformin or metformin, as indicated (FIG. 3). Cell cultures were started at a density of 200,000 cells/ml.

[7] = treatment of diabetes; background statement; cited from earlier work
[8] = system: Bax-Bak deficient lymphocytes; assay: Proliferation of Bax-Bak deficient lymphocytes with IL-3 stimulation, total cell number after three days; type: cell-based; conditions: three days after a single dose, started at 200,000 cells/ml, FIG. 4
Protocol: The ability of phenformin to inhibit the proliferation of Bax-Bak deficient lymphocytes, in the presence of IL-3 stimulation, was assessed, and compared to the activity of metformin. Direct comparison of metformin and phenformin activity, over a range of biguanide concentrations, was accomplished by comparing total cell numbers of bax-bak deficient cells after three days exposure to a single dose of phenformin or metformin, as indicated (FIG. 4). Cell cultures were started at a density of 200,000 cells/ml.

K562 cells [9] = assay: Oxygen consumption rate (electron transport activity), Clarke oxygen electrode; type: cell-based; conditions: 24 hours inhibitor treatment, relative to untreated, FIG. 6A
Protocol: (§5) Oxygen consumption by whole cells was measured as previously described. See Schumacker P T, Chandei N, Agusti A G. Oxygen conformance of cellular respiration in hepatocytes. Am J. Physiol. 1993; 265:L395-402. Briefly, inhibitor-treated (24 hours) K562 cells were resuspended at a concentration of 4 million cells/ml, and 1.4 mL of culture was transferred to a water-jacketed, airtight 3 ml chamber with a Clarke oxygen electrode, (Hansatech Instruments). Electron transport activity was manipulated through mitochondrial uncoupling with 10 uL of 1 mM Carbonyl cyanide 3-chlorophenylhydrazone (CCCP) (Sigma), and media supplementation of sodium Succinate (25 uL of 1M stock), after membrane permeabilization with […] (4 ul of 25 mg/ml stock). Relative ATP levels were assessed using the Invitrogen ATP determination kit (A22066), as per protocol, using 25,000 cell pellets. Cells were assayed after 24 hours of inhibitor treatment, as indicated, and results were expressed as Arbitrary Units/25000 cells.
Electron Transport Activity (ETC) activity, as determined by oxygen consumption rates, was assessed after treatment with each inhibitor, using a water-jacketed, airtight 3 ml chamber with a Clarke oxygen electrode, (Hansatech Instruments).

K562 cells [10] = assay: Intracellular ATP levels (Invitrogen ATP determination kit); type: cell-based; conditions: K562, 24 hours of inhibitor treatment; 25,000 cell pellets; FIG. 6B
Protocol: as §5
Cells were assayed after 24 hours of inhibitor treatment, as indicated, and results were expressed as Arbitrary Units/25000 cells. Oxygen consumption correlated closely with relative levels of intracellular ATP.

c-myc = assay: Western blot of BCR-Abl-induced c-myc expression in K562 cells after 24 hours of inhibitor treatment; type: cell-based; conditions: K562, 24 hours of inhibitor treatment; FIG. 9
Source text: Western Blot Analysis. Cells were lysed in radioimmunoprecipitation (RIPA) buffer containing protease inhibitors (Complete Mini, Roche Applied Science), and protease inihibitors cocktails I and II (Sigma). BCA Protein Assay kit (Pierce Biotechnology) was used to assess and standardize protein concentrations. Proteins were resolved using a 4-12% NuPage Bis-Tris polyacrylamide gels (Invitrogen), and transferred to nitrocellulose membranes. Membranes were blocked using 5% nonfat dry skim milk and 0.1% Tween. Blots were subsequently probed with primary antibodies against: REDD-1 (Proteintech Group Inc), phospho-ser235/236 S6RP, total S6RP, phospho-thr172 AMPK, total-AMPK, phospho-tyr694/699 STAT5 (Upstate Biotechnology), total STAT5 (Upstate Biotechnology), phospho-thr202/tyr204 p42/44MAPK, total p42/44 MAPK, c-myc (Santa Cruz Biotechnologies), HIF-1a (Biosciences Pharmingen), and tubulin (Sigma). Unless otherwise indicated, all antibodies were obtained from Cell Signaling Technologies. Bands were subsequently detected using horseradish-peroxidase conjugated anti-mouse or anti-rabbit secondary antibodies (GE Healthcare Industries) and enhanced chemiluminescence detection kit (Amersham).
Expression levels of c-myc in inhibitor and untreated (U) control K562 cells was investigated by Western Blotting of cellular extracts prepared after 24 hours of inhibitor treatment.

K562 cells [11] = assay: pO2, glucose and lactate in supernatants of K562 cells incubated in airtight tubes at 37° C.; type: cell-based; conditions: 1 to 6 hours, versus untreated, FIG. 10A
Protocol: as §4
Phenformin-treated and untreated K562 cells were transferred to airtight tubes and incubated at 37° C. for 1 to 6 hours. At one hour intervals, supernatants were analyzed for partial oxygen pressure (pO2), glucose, and lactate levels, while cells were collected for protein extract preparation. […] FIG. 10D. Tubulin serves as loading control.

HIF-1 = HIF-1 induction in K562 cells in airtight tubes (Western blot); type: cell-based; conditions: 37° C., FIG. 10D
Source text: as §2
Daily cell culture supernatants were collected, and analyzed using the Nova Biomedical Bioprofile Flex Analyzer, which determined glucose, glutamine, lactate, and ammonia levels. […] At indicated time points, tubes were spun to pellet cells, and the glucose, lactate and pO2 content of supernatant was assessed by syringe sampling through an air-tight rubber stopper. […]
Phenformin-treated and untreated K562 cells were transferred to airtight tubes and incubated at 37° C. for 1 to 6 hours. At one hour intervals, supernatants were analyzed for partial oxygen pressure (pO2), glucose, and lactate levels, while cells were collected for protein extract preparation. […]

[12] = 1 mM phenformin, 750 nM imatinib

Compound: Cc1ccc(NC(=O)c2ccc(CN3CCN(C)CC3)cc2)cc1Nc1nccc(-c2cccnc2)n1 [imatinib]
- cell viability (K562 cells [1]): induced a decrease in viability
- STAT5 phosphorylation (STAT5): decreased the levels of STAT5 phosphorylation
- Akt phosphorylation (Akt): left Akt phosphoylation intact
- glucose consumption (K562 cells [2]): minimal glucose consumption
- lactate production (K562 cells [2]): minimal glucose consumption and lactate production
- cell viability in glutamine-depleted medium (K562 cells [3]): significantly increased cell death upon glutamine depletion
- glutamine uptake (K562 cells [4]): failed to demonstrate substantial glutamine uptake
- doubling of cell number achieved before proliferation ceased (K562 cells [5]; 750 nM imatinib): approximately one
- time after which proliferation ceased (K562 cells [5]; 750 nM imatinib): 2 days
- effect on K562 proliferation (cell number) (K562 cells [5]; [12]): halted K562 proliferation

Compound: CN(C)C(=N)NC(=N)N [metformin]
- inhibition of K562 proliferation (K562 cells [6]): relatively weak inhibitor of K562 proliferation
- risk / incidence of lactic acidosis [7]: significantly less than that observed with phenformin

Compound: [H]/N=C(/N)N/C(=N/[H])NCCc1ccccc1 [phenformin]
- cell viability (K562 cells [1]): greater viability over the four days
- Akt phosphorylation (Akt): no suppression of Akt phosphorylation
- potency in inhibiting K562 proliferation relative to metformin (K562 cells [6]): 100 fold
- inhibition of K562 proliferation (K562 cells [6]): more potent inhibitor of K562 proliferation
- inhibition of proliferation of bax-bak deficient cells [8]: prevents proliferation of bax-bak deficient cells; also recorded: consistently more potent an inhibitor than metformin
- glucose consumption (K562 cells [2]): consumed glucose at rates similar to untreated cells
- lactate production (K562 cells [2]): accumulated lactate and consumed glucose at rates similar to untreated cells
- oxygen consumption (K562 cells [9]): most dramatically reduced oxygen consumption
- intracellular ATP levels (K562 cells [10]): most profoundly reduced
- cell viability in glucose-depleted medium (K562 cells [3]): significantly increased cell death upon glucose depletion
- cell viability in glutamine-depleted medium (K562 cells [3]): significantly increased cell death upon glutamine depletion
- glutamine uptake (K562 cells [4]): failed to demonstrate substantial glutamine uptake
- c-myc expression (c-myc): inhibited c-myc expression more effectively than rapamycin; also recorded: commensurate in efficacy with imatinib
- partial oxygen pressure (pO2) of the culture (K562 cells [11]): dramatically different partial oxygen pressures; also recorded: absence of hypoxia; also recorded: maintained an oxygen-rich environment
- HIF-1 induction (HIF-1): prevented HIF-1 induction; also recorded: prevents hypoxia and HIF-1 induction
- risk / incidence of lactic acidosis [7]: increased risk of lactic acidosis
- effect on K562 proliferation (cell number) (K562 cells [5]; [12]): halted K562 proliferation
- time after which no increase in cell number was observed (K562 cells [5]; 1 mM phenformin): 24 h
